This note sets out measurements from US12611434B2, “Bifidobacterium brevis and its application in preventing or alleviating psoriasis thereof” (Jiangnan University, priority 2020, dated 2026).

Assay type in all cases: in vivo, BALB/c female mice
One test relates to IL-22. Put plainly: IL-22 content in skin of psoriasis mice by ELISA kit. The conditions noted are these: compared with model group; intragastric daily (bacteria 0.2 mL of 1×10^9 CFU/mL; methotrexate 1 mg/kg/day); back skin, 1st day of week 4. From the text:
(§1) 6 to 8-week-old SPF-class BALB/c female mice were divided into 4 groups: a normal group, a model group, a positive reference group (hereinafter referred to as PRG) and experimental groups, where the experimental groups included a CCFM1078 group intragastrically administrated with the B. breve CCFM1078 and a B. breve 1 group intragastrically administrated with the B. breve 1, with 6 animals in each group. All mice were raised in the Experimental Animal Center of Jiangnan University and fed with ordinary feed, at a constant temperature of 21 to 26° C. and at the humidity of 40 to 70%, with noise of less than or equal to 60 dB, and animal illumination of 15 to 20 LX (all animal experiment procedures were reviewed and approved by the Animal welfare and Ethics Management Committee of Jiangnan University).
The experimental cycle was a total of 3 weeks, and modeling was performed in week 3. The back of the mice was depilated the day before modeling, in an area of about 2.5 cm×2.5 cm. […] The mice were sacrificed on the 1st day of week 4, a part of the skin of the back depilated region of mice was taken and stored at −80° C., and the content of IL-22 in the skin was detected by an ELISA kit.
A general note: ELISA stands for enzyme-linked immunosorbent assay.

In another test the test system is IL-17. Kind of test: IL-17 content in skin of psoriasis mice by ELISA kit. To be noted: compared with model group; intragastric daily (bacteria 0.2 mL of 1×10^9 CFU/mL); back skin, 1st day of week 4.
Source text: as §1
The experimental cycle was a total of 3 weeks, and modeling was performed in week 3. The back of the mice was depilated the day before modeling, in an area of about 2.5 cm×2.5 cm. […] The mice were sacrificed on the 1st day of week 4, a part of the skin of the back depilated region of mice was taken and stored at −80° C., and the content of IL-17 in the skin was detected by an ELISA kit.

A further test deals with IL-23. Put plainly: IL-23 content in skin of psoriasis mice by ELISA kit. To be noted: compared with model group; intragastric daily (bacteria 0.2 mL of 1×10^9 CFU/mL; methotrexate 1 mg/kg/day); back skin, 1st day of week 4.
Source text: as §1
The experimental cycle was a total of 3 weeks, and modeling was performed in week 3. The back of the mice was depilated the day before modeling, in an area of about 2.5 cm×2.5 cm. […] The mice were sacrificed on the 1st day of week 4, a part of the skin of the back depilated region of mice was taken and stored at −80° C., and the content of IL-23 in the skin was detected by an ELISA kit.

For `CN(Cc1cnc2nc(N)nc(N)c2n1)c1ccc(C(=O)N[C@@H](CCC(=O)O)C(=O)O)cc1` [methotrexate], the “decrease of IL-22 content in the skin” value in the test on IL-22 turned out to be 41.8%. In addition, the “decrease of IL-17 content in the skin” value with IL-17 was 24.6%. The “decrease of IL-23 content in the skin” value in the test on IL-23 is on record as 43.8%.
